The record followed here is patent US11083196B2, “Microbiocidal oxadiazole derivatives” (SYNGENTA PARTICIPATIONS AG, priority 2016, dated 2021).

The term pest or weed control denotes how far the test organism was held down. By melting point is commonly meant the temperature, or range, at which the solid turns liquid. For orientation: inhibition of growth means the share of the control response that was lost under treatment. Read a high inhibition of growth as strong suppression.

Values joined by “and” are separate entries in the source; they are usually repeats but may differ in a detail not shown here. Identical values can stand only once. A value given as a limit tells only on which side of the number the result lay.

Series [1] concerns Puccinia recondita f. sp. tritici. The series can be described thus: Fungicidal activity against Puccinia recondita f. sp. tritici / wheat / leaf disc curative (brown rust). It counts as in vivo. The note with it: foliar, 144 h, wheat leaf segments cv. Kanzler, applied 1 day after inoculation, assessed 6-8 days after application, compared to untreated control. As to the method:
Leaf disks or leaf segments of various plant species are cut from plants grown in a greenhouse. The cut leaf disks or segments are placed in multiwell plates (24-well format) onto water agar. The leaf disks are sprayed with a test solution before (preventative) or after (curative) inoculation. Compounds to be tested are prepared as DMSO solutions (max. 10 mg/ml) which are diluted to the appropriate concentration with 0.025% Tween20 just before spraying. The inoculated leaf disks or segments are incubated under defined conditions (temperature, relative humidity, light, etc.) according to the respective test system. A single evaluation of disease level is carried out 3 to 14 days after inoculation, depending on the pathosystem. Percent disease control relative to the untreated check leaf disks or segments is then calculated. Wheat leaf segments cv. Kanzler are placed on agar in multiwell plates (24-well format). The leaf segments are inoculated with a spore suspension of the fungus. Plates are stored in darkness at 19° C. and 75% rh. The formulated test compound diluted in water is applied 1 day after inoculation. The leaf segments are incubated at 19° C. and 75% rh under a light regime of 12 h light/12 h darkness in a climate cabinet and the activity of a compound is assessed as percent disease control compared to untreated when an appropriate level of disease damage appears in untreated check leaf segments (6-8 days after application).

Series [2] shares this test system. The series is described as follows: Fungicidal activity against Puccinia recondita f. sp. tritici / wheat / leaf disc preventative (brown rust). It counts as in vivo. As to conditions: foliar, 168 h, wheat leaf segments cv. Kanzler, inoculated 1 day after application, assessed 7-9 days after application, compared to untreated control. The method, then: Leaf disks or leaf segments of various plant species are cut from plants grown in a greenhouse. The cut leaf disks or segments are placed in multiwell plates (24-well format) onto water agar. The leaf disks are sprayed with a test solution before (preventative) or after (curative) inoculation. Compounds to be tested are prepared as DMSO solutions (max. 10 mg/ml) which are diluted to the appropriate concentration with 0.025% Tween20 just before spraying. The inoculated leaf disks or segments are incubated under defined conditions (temperature, relative humidity, light, etc.) according to the respective test system. A single evaluation of disease level is carried out 3 to 14 days after inoculation, depending on the pathosystem. Percent disease control relative to the untreated check leaf disks or segments is then calculated. Wheat leaf segments cv. Kanzler are placed on agar in multiwell plates (24-well format) and sprayed with the formulated test compound diluted in water. The leaf disks are inoculated with a spore suspension of the fungus 1 day after application. The inoculated leaf segments are incubated at 19° C. and 75% rh under a light regime of 12 h light/12 h darkness in a climate cabinet and the activity of a compound is assessed as percent disease control compared to untreated when an appropriate level of disease damage appears in untreated check leaf segments (7-9 days after application).

A further series relates to Phakopsora pachyrhizi. The series can be described thus: Fungicidal activity against Phakopsora pachyrhizi / soybean / leaf disc preventative (Asian soybean rust). It counts as in vivo. As to conditions: foliar, 288 h, soybean leaf disks, inoculated one day after application, assessed 12-14 days after application, compared to untreated control. The method, then: Leaf disks or leaf segments of various plant species are cut from plants grown in a greenhouse. The cut leaf disks or segments are placed in multiwell plates (24-well format) onto water agar. The leaf disks are sprayed with a test solution before (preventative) or after (curative) inoculation. Compounds to be tested are prepared as DMSO solutions (max. 10 mg/ml) which are diluted to the appropriate concentration with 0.025% Tween20 just before spraying. The inoculated leaf disks or segments are incubated under defined conditions (temperature, relative humidity, light, etc.) according to the respective test system. A single evaluation of disease level is carried out 3 to 14 days after inoculation, depending on the pathosystem. Percent disease control relative to the untreated check leaf disks or segments is then calculated. Soybean leaf disks are placed on water agar in multiwell plates (24-well format) and sprayed with the formulated test compound diluted in water. One day after application leaf discs are inoculated by spraying a spore suspension on the lower leaf surface. After an incubation period in a climate cabinet of 24-36 hours in darkness at 20° C. and 75% rh leaf disc are kept at 20° C. with 12 h light/day and 75% rh. The activity of a compound is assessed as percent disease control compared to untreated when an appropriate level of disease damage appears in untreated check leaf disks (12-14 days after application).

Series [3] deals with Glomerella lagenarium (Colletotrichum lagenarium). The series is described as follows: Fungicidal activity against Glomerella lagenarium (Colletotrichum lagenarium), liquid culture / cucumber / preventative (anthracnose). It counts as cell-based. The note with it: Colletotrichum orbiculare, liquid culture (PDB), growth inhibition measured photometrically 3-4 days after application, compared to untreated control. An outline of the steps: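 Glomerella lagenarium conidia in potato dextrose broth were exposed in 96-well plates to test compound diluted from DMSO stock with 0.025% Tween20 and incubated at 24 °C. Growth inhibition was read photometrically 3–4 days after application, as percent activity relative to untreated check.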

For the compound `CC(=O)OCc1cnc(-c2ccc(-c3noc(C(F)(F)F)n3)cc2)o1` [Compound C-1, [2-[4-[5-(trifluoromethyl)-1,2,4-oxadiazol-3-yl]phenyl]oxazol-5-yl]methyl acetate], the melting point was in the range of 69 to 71 °C. In addition, the pest or weed control at 200 ppm in series [1] is ≥ 80%. In addition, the pest or weed control at 200 ppm in series [2] is ≥ 80%. Further, in the series on Phakopsora pachyrhizi, the pest or weed control at 200 ppm is ≥ 80%.
Consider `CC1=NOC(c2ccc(-c3noc(C(F)(F)F)n3)cc2)C1` (centres unmarked) [Compound A-4, 3-[4-(3-methyl-4,5-dihydroisoxazol-5-yl)phenyl]-5-(trifluoromethyl)-1,2,4-oxadiazole], for which the melting point was in the range of 89 to 92 °C. In addition, in series [1], the pest or weed control at 200 ppm was ≥ 80%. The pest or weed control at 200 ppm in series [2] was ≥ 80%. In addition, the pest or weed control at 200 ppm with Phakopsora pachyrhizi is ≥ 80%. Further, the inhibition of growth at 20 ppm in series [3] is ≥ 80%.
For `COCC(=O)NC1CSC(c2ccc(-c3noc(C(F)(F)F)n3)cc2)=N1` (centres unmarked) [Compound A-28, 2-methoxy-N-(2-[4-[5-(trifluoromethyl)-1,2,4-oxadiazol-3-yl]phenyl]-4,5-dihydrothiazol-4-yl]acetamide], the pest or weed control at 200 ppm (in series [1]; in series [2]; in the series on Phakopsora pachyrhizi) was ≥ 80% each time. In series [3], the inhibition of growth at 20 ppm is ≥ 80%.
Consider `CC1(C)CN=C(c2ccc(-c3noc(C(F)(F)F)n3)cc2)O1` [Compound A-21, 3-[4-(5,5-dimethyl-4H-oxazol-2-yl)phenyl]-5-(trifluoromethyl)-1,2,4-oxadiazole], for which the melting point was in the range of 178 to 180 °C. For the same compound, in series [1], the pest or weed control at 200 ppm was ≥ 80%. The pest or weed control at 200 ppm in series [2] was ≥ 80%. Moreover, in the series with Phakopsora pachyrhizi, the pest or weed control at 200 ppm is ≥ 80%. Besides, in series [3], the inhibition of growth at 20 ppm was ≥ 80%.
`CCCC1=NOC(c2ccc(-c3noc(C(F)(F)F)n3)cc2)C1` (centres unmarked) [Compound A-6, 3-[4-(3-propyl-4,5-dihydroisoxazol-5-yl)phenyl]-5-(trifluoromethyl)-1,2,4-oxadiazole] yielded a melting point of 79 to 83 °C. Besides, in series [1], the pest or weed control at 200 ppm was ≥ 80%. The pest or weed control at 200 ppm in series [2] was ≥ 80%. Also, the pest or weed control at 200 ppm in the series on Phakopsora pachyrhizi is ≥ 80%. Besides, the inhibition of growth at 20 ppm in series [3] is ≥ 80%.
Regarding `FC(F)(F)c1nc(-c2ccc(C3=NCCO3)cc2)no1` [Compound A-3, 3-[4-(4,5-dihydrooxazol-2-yl)phenyl]-5-(trifluoromethyl)-1,2,4-oxadiazole], the melting point lay within 120 to 125 °C. Also, the pest or weed control at 200 ppm in series [1] was ≥ 80%. Moreover, in series [2], the pest or weed control at 200 ppm was ≥ 80%. Also, the pest or weed control at 200 ppm in the series with Phakopsora pachyrhizi was ≥ 80%.
Compound `CC1(C)COC(c2ccc(-c3noc(C(F)(F)F)n3)cc2)NC1=O` (centres unmarked) [Compound A-10, 5,5-dimethyl-2-[4-[5-(trifluoromethyl)-1,2,4-oxadiazol-3-yl]phenyl]-1,3-oxazinan-4-one] yielded a melting point of 187.3 to 189 °C. For the same compound, the pest or weed control at 200 ppm in series [2] is ≥ 80%. Moreover, the pest or weed control at 200 ppm in the series with Phakopsora pachyrhizi is ≥ 80%. The inhibition of growth at 20 ppm in series [3] was ≥ 80%.
As to `O=C(C1CC1)N1CCCC1c1ccc(-c2noc(C(F)(F)F)n2)cc1` (centres unmarked) [Compound A-36, cyclopropyl-[2-[4-[5-(trifluoromethyl)-1,2,4-oxadiazol-3-yl]phenyl]pyrrolidin-1-yl]methanone], the pest or weed control at 200 ppm (in series [1]; in the series with Phakopsora pachyrhizi) was ≥ 80% throughout. Further, in series [3], the inhibition of growth at 20 ppm is ≥ 80%.
On to `COCC1=NOC(c2ccc(-c3noc(C(F)(F)F)n3)cc2)C1` (centres unmarked) [Compound A-9, 3-[4-[3-(methoxymethyl)-4,5-dihydroisoxazol-5-yl]phenyl]-5-(trifluoromethyl)-1,2,4-oxadiazole], for which the melting point was in the range of 59 to 63 °C. In series [1], the pest or weed control at 200 ppm was ≥ 80%. Also, in series [2], the pest or weed control at 200 ppm is ≥ 80%. For the same compound, the pest or weed control at 200 ppm with Phakopsora pachyrhizi was ≥ 80%. Further, the inhibition of growth at 20 ppm in series [3] was ≥ 80%.
As to `CC(C)(C)[S+]([O-])NC1CSC(c2ccc(-c3noc(C(F)(F)F)n3)cc2)=N1` (centres unmarked) [Compound A-29, 2-methyl-N-[2-[4-[5-(trifluoromethyl)-1,2,4-oxadiazol-3-yl]phenyl]-4,5-dihydrothiazol-4-yl]propane-2-sulfinamide], the pest or weed control at 200 ppm (in series [1]; in series [2]; with Phakopsora pachyrhizi) was ≥ 80% in each case. In addition, the inhibition of growth at 20 ppm in series [3] was ≥ 80%.
`CC1COC(c2ccc(-c3noc(C(F)(F)F)n3)cc2)=N1` (centres unmarked) [Compound A-1, 3-[4-(4-methyl-4,5-dihydrooxazol-2-yl)phenyl]-5-(trifluoromethyl)-1,2,4-oxadiazole] came in with a melting point of 77 to 80 °C. Further, the pest or weed control at 200 ppm in series [1] is ≥ 80%. In addition, the pest or weed control at 200 ppm in series [2] is ≥ 80%. Further, the pest or weed control at 200 ppm in the series with Phakopsora pachyrhizi is ≥ 80%. The inhibition of growth at 20 ppm in series [3] was ≥ 80%.
Regarding `FC(F)(F)c1nc(-c2ccc(-c3ccnc(Cl)c3)cc2)no1` [Compound D-26, 3-[4-(2-chloro-4-pyridyl)phenyl]-5-(trifluoromethyl)-1,2,4-oxadiazole], the melting point fell in the range of 110 to 115 °C. Also, in series [1], the pest or weed control at 200 ppm is ≥ 80%. The pest or weed control at 200 ppm in series [2] was ≥ 80%. Moreover, the pest or weed control at 200 ppm with Phakopsora pachyrhizi is ≥ 80%. In addition, the inhibition of growth at 20 ppm in series [3] is ≥ 80%.
`Cc1cnc(-c2ccc(-c3noc(C(F)(F)F)n3)cc2)o1` [Compound C-2, 3-[4-(5-methyloxazol-2-yl)phenyl]-5-(trifluoromethyl)-1,2,4-oxadiazole]: the melting point is 110 to 111 °C and 109 to 111 °C. Further, the pest or weed control at 200 ppm in series [1] was ≥ 80%. For the same compound, the pest or weed control at 200 ppm in series [2] is ≥ 80%. Also, the pest or weed control at 200 ppm in the series on Phakopsora pachyrhizi is ≥ 80%.
As to `CCC1=NOC(c2ccc(-c3noc(C(F)(F)F)n3)cc2)C1` (centres unmarked) [Compound A-5, 3-[4-(3-ethyl-4,5-dihydroisoxazol-5-yl)phenyl]-5-(trifluoromethyl)-1,2,4-oxadiazole], the melting point lay in the range of 75 to 80 °C. Moreover, the pest or weed control at 200 ppm in series [1] is ≥ 80%. In addition, the pest or weed control at 200 ppm in series [2] is ≥ 80%. Further, the pest or weed control at 200 ppm in the series on Phakopsora pachyrhizi was ≥ 80%. For the same compound, the inhibition of growth at 20 ppm in series [3] is ≥ 80%.
